Patent publication US20090018134A1, “Compounds - 945” (AstraZeneca AB, priority 2007, published 2009)

Biological target: T1, mTOR (Homo sapiens, UniProt P42345)
T1 construct: FLAG; made in house
Assay: In Vitro mTOR Kinase Assay (Echo), Test (a)(ii)
Type: biochemical
Conditions: read-out: mTOR Kinase Assay (Echo)
Excerpt: (a)(ii) In Vitro mTOR Kinase Assay (Echo)
The assay used AlphaScreen technology (Gray et al., Analytical Biochemistry, 2003, 313: 234-245) to determine the ability of test compounds to inhibit phosphorylation by recombinant mTOR.
A C-terminal truncation of mTOR encompassing amino acid residues 1362 to 2549 of mTOR (EMBL Accession No. L34075) was stably expressed as a FLAG-tagged fusion in HEK293 cells as described by Vilella-Bach et al., […], 1999, 274, 4266-4272. The HEK293 FLAG-tagged mTOR (1362-2549) stable cell line was routinely maintained at 37° C. with 5% CO2 up to a confluency of 70-90% in Dulbecco's modified Eagle's growth medium (DMEM; Invitrogen Limited, Paisley, UK Catalogue No. 41966-029) containing 10% heat-inactivated foetal calf serum (FCS; Sigma, Poole, Dorset, UK, Catalogue No. F0392), 1% L-glutamine (Gibco, Catalogue No. 25030-024) and 2 mg/ml Geneticin (G418 sulfate; Invitrogen Limited, UK Catalogue No. 1013 1-027). Following expression in the mammalian HEK293 cell line, expressed protein was purified using the FLAG epitope tag using standard purification techniques.
Aliquots (120 nl […]) of each compound dilution were acoustically dispensed placed using a Labcyte Echo 550 into a well of a Greiner 384-well low volume (LV) white polystyrene plate (Greiner Bio-one).
These assay solutions were incubated for 2 hours at room temperature.
Each reaction was stopped by the addition of […] of a mixture of EDTA (50 mM), bovine serum albumin (BSA; 0.5 mg/mL) and Tris-HCl pH 7.4 buffer (50 mM) containing p70 S6 Kinase (T389) 1A5 Monoclonal Antibody (Cell Signalling Technology, Catalogue No. 9206B) and AlphaScreen Streptavidin donor and Protein A acceptor beads (200 ng; Perkin Elmer, Catalogue No. 6760002B and 6760137R respectively) were added and the assay plates were left overnight at room temperature in the dark. The resultant signals arising from laser light excitation at 680 nm were read using a Packard Envision instrument.
The phosphorylated biotinylated peptide that is associated with AlphaScreen Streptavidin donor beads forms a complex with the p70 S6 Kinase (T389) 1A5 Monoclonal Antibody that is associated with Alphascreen Protein A acceptor beads. Upon laser light excitation at 680 nm, the donor bead: acceptor bead complex produces a signal that can be measured. Accordingly, the presence of mTOR kinase activity results in an assay signal. In the presence of an mTOR kinase inhibitor, signal strength is reduced.
mTOR enzyme inhibition for a given test compound was expressed as an IC50 value.

T1 sequence (P42345 1362-2549): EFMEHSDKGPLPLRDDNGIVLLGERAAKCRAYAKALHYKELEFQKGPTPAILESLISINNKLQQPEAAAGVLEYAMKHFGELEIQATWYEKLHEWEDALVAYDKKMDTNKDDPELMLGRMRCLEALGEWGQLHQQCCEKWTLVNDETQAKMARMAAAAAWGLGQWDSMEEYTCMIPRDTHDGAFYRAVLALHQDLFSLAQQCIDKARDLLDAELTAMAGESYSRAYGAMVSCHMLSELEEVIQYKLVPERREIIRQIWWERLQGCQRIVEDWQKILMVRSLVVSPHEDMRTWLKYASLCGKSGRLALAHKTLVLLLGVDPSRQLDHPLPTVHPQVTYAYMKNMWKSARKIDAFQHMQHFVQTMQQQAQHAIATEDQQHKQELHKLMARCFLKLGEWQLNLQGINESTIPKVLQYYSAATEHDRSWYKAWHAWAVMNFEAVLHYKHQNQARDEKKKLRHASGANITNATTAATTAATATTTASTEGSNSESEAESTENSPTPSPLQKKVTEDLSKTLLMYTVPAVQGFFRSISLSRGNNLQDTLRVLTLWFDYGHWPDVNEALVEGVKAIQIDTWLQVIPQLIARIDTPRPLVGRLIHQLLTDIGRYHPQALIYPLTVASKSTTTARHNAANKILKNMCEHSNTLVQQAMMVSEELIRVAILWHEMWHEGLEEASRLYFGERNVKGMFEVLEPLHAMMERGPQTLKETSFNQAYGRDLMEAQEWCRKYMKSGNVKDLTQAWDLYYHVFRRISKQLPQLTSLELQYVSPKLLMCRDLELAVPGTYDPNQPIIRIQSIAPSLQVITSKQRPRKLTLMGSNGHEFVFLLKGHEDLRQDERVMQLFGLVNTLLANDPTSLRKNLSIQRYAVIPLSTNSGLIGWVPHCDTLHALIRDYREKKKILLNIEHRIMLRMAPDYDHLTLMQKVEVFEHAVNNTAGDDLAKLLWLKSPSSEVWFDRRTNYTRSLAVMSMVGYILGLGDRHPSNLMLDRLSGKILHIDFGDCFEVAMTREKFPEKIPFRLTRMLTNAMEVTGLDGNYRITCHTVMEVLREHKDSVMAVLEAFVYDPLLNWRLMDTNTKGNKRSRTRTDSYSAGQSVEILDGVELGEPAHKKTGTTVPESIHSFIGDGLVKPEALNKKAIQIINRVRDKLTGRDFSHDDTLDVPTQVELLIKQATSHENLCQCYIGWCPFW

Q: Which IC50 does the source give for `C[C@H]1COCCN1c1cc(C2(S(=O)(=O)C3CC3)CC2)nc(-c2ccc(NC(=O)Nc3ccccn3)cc2)n1` [Example 3b, 1-[4-[4-(1-cyclopropylsulfonylcyclopropyl)-6-[(3S)-3-methylmorpholin-4-yl]pyrimidin-2-yl]phenyl]-3-pyridin-2-yl-urea] here?
A: 3.85 nM

Q: `CC(C)CNC(=O)Nc1ccc(-c2nc(N3CCOC[C@@H]3C)cc(C3(S(=O)(=O)C4CC4)CC3)n2)cc1` [Example 3c, 1-[4-[4-(1-cyclopropylsulfonylcyclopropyl)-6-[(3S)-3-methylmorpholin-4-yl]pyrimidin-2-yl]phenyl]-3-(2-methylpropyl)urea] was tested. Which IC50 did it give?
A: 12.4 nM

Q: Which IC50 does the source give for `CC(C)NC(=O)Nc1ccc(-c2nc(N3CCOC[C@@H]3C)cc(C3(S(=O)(=O)C4CC4)CC3)n2)cc1` [Example 3d, 1-[4-[4-(1-cyclopropylsulfonylcyclopropyl)-6-[(3S)-3-methylmorpholin-4-yl]pyrimidin-2-yl]phenyl]-3-propan-2-yl-urea] here?
A: 13.5 nM

Q: Which IC50 does the source give for `CCNC(=O)Nc1ccc(-c2nc(N3CCOC[C@@H]3C)cc(C3(S(=O)(=O)C4CC4)CC3)n2)cc1` [Example 3e, 3-[4-[4-(1-cyclopropylsulfonylcyclopropyl)-6-[(3S)-3-methylmorpholin-4-yl]pyrimidin-2-yl]phenyl]-1-ethyl-urea] here?
A: 1.66 nM

Q: For `C[C@H]1COCCN1c1cc(C2(S(=O)(=O)C3CC3)CC2)nc(-c2ccc(NC(=O)NCCN(C)C)cc2)n1` [Example 3f, 1-[4-[4-(1-cyclopropylsulfonylcyclopropyl)-6-[(3S)-3-methylmorpholin-4-yl]pyrimidin-2-yl]phenyl]-3-(2-dimethylaminoethyl)urea], which IC50 is on record?
A: 21.4 nM

Q: `CCCNC(=O)Nc1ccc(-c2nc(N3CCOC[C@@H]3C)cc(C3(S(=O)(=O)C4CC4)CC3)n2)cc1` [Example 3h, 3-[4-[4-(1-cyclopropylsulfonylcyclopropyl)-6-[(3S)-3-methylmorpholin-4-yl]pyrimidin-2-yl]phenyl]-1-propyl-urea] was tested. Which IC50 did it give?
A: 16.5 nM

Q: Which IC50 does the source give for `CNC(=O)Nc1ccc(-c2nc(N3CCOC[C@@H]3C)cc(C3(S(=O)(=O)C4CC4)CC3)n2)cc1` [Example 3i, 1-[4-[4-(1-cyclopropylsulfonylcyclopropyl)-6-[(3S)-3-methylmorpholin-4-yl]pyrimidin-2-yl]phenyl]-3-methyl-urea] here?
A: 0.932 nM

Q: How did the IC50 turn out when `C[C@H]1COCCN1c1cc(C2(S(=O)(=O)C3CC3)CC2)nc(-c2ccc(NC(=O)Nc3ccc(C(F)(F)F)cc3)cc2)n1` [Example 3j, 1-[4-[4-(1-cyclopropylsulfonylcyclopropyl)-6-[(3S)-3-methylmorpholin-4-yl]pyrimidin-2-yl]phenyl]-3-[4-(trifluoromethyl)phenyl]urea] was run?
A: 4.22 nM

Q: Which IC50 does the source give for `C[C@H]1COCCN1c1cc(C2(S(=O)(=O)C3CC3)CC2)nc(-c2ccc(NC(=O)NC(C)(C)CO)cc2)n1` [Example 3k, 1-[4-[4-(1-cyclopropylsulfonylcyclopropyl)-6-[(3S)-3-methylmorpholin-4-yl]pyrimidin-2-yl]phenyl]-3-(1-hydroxy-2-methyl-propan-2-yl)urea] here?
A: 2.27 nM

Q: With `C[C@H]1COCCN1c1cc(C2(S(=O)(=O)C3CC3)CC2)nc(-c2ccc(NC(=O)NCCCO)cc2)n1` [Example 3l, 1-[4-[4-(1-cyclopropylsulfonylcyclopropyl)-6-[(3S)-3-methylmorpholin-4-yl]pyrimidin-2-yl]phenyl]-3-(3-hydroxypropyl)urea] as the compound, how does the IC50 read?
A: 2.57 nM

Q: Which IC50 does the source give for `C[C@H]1COCCN1c1cc(C2(S(=O)(=O)C3CC3)CC2)nc(-c2ccc(NC(=O)Nc3cnn(C)c3)cc2)n1` [Example 3m, 1-[4-[4-(1-cyclopropylsulfonylcyclopropyl)-6-[(3S)-3-methylmorpholin-4-yl]pyrimidin-2-yl]phenyl]-3-(1-methylpyrazol-4-yl)urea] here?
A: 0.497 nM

Q: For `C[C@H]1COCCN1c1cc(C2(S(=O)(=O)C3CC3)CC2)nc(-c2ccc(NC(=O)NCC(C)(C)CO)cc2)n1` [Example 3n, 1-[4-[4-(1-cyclopropylsulfonylcyclopropyl)-6-[(3S)-3-methylmorpholin-4-yl]pyrimidin-2-yl]phenyl]-3-(3-hydroxy-2,2-dimethylpropyl)urea], which IC50 is on record?
A: 39.6 nM

Q: Which IC50 does the source give for `C[C@H]1COCCN1c1cc(C2(S(=O)(=O)C3CC3)CC2)nc(-c2ccc(NC(=O)NCCC#N)cc2)n1` [Example 3o, 3-(2-cyanoethyl)-1-[4-[4-(1-cyclopropylsulfonylcyclopropyl)-6-[(3S)-3-methylmorpholin-4-yl]pyrimidin-2-yl]phenyl]urea] here?
A: 5.96 nM

Q: For `C[C@H]1COCCN1c1cc(C2(S(=O)(=O)C3CC3)CC2)nc(-c2ccc(NC(=O)NCCN3CCCC3)cc2)n1` [Example 3p, 1-[4-[4-(1-cyclopropylsulfonylcyclopropyl)-6-[(3S)-3-methylmorpholin-4-yl]pyrimidin-2-yl]phenyl]-3-(2-pyrrolidin-1-ylethyl)urea], which IC50 is on record?
A: 193 nM

Q: Which IC50 does the source give for `C[C@H]1COCCN1c1cc(C2(S(=O)(=O)C3CC3)CC2)nc(-c2ccc(NC(=O)NCC(O)C(F)(F)F)cc2)n1` (stereo partly drawn) [Example 3q, 1-[4-[4-(1-cyclopropylsulfonylcyclopropyl)-6-[(3S)-3-methylmorpholin-4-yl]pyrimidin-2-yl]phenyl]-3-(3,3,3-trifluoro-2-hydroxypropyl)urea] here?
A: 8.39 nM

Q: Which IC50 does the source give for `C[C@H]1COCCN1c1cc(C2(S(=O)(=O)C3CC3)CC2)nc(-c2ccc(NC(=O)NCC(C)(C)O)cc2)n1` [Example 3r, 1-[4-[4-(1-cyclopropylsulfonylcyclopropyl)-6-[(3S)-3-methylmorpholin-4-yl]pyrimidin-2-yl]phenyl]-3-(2-hydroxy-2-methylpropyl)urea] here?
A: 48.8 nM

Q: With `C[C@H]1COCCN1c1cc(C2(S(=O)(=O)C3CC3)CC2)nc(-c2ccc(NC(=O)NC3(CO)CC3)cc2)n1` [Example 3s, 1-[4-[4-(1-cyclopropylsulfonylcyclopropyl)-6-[(3S)-3-methylmorpholin-4-yl]pyrimidin-2-yl]phenyl]-3-[1-(hydroxymethyl)cyclopropyl]urea] as the compound, how does the IC50 read?
A: 26.3 nM

Q: With `C[C@H]1COCCN1c1cc(C2(S(=O)(=O)C3CC3)CC2)nc(-c2ccc(NC(=O)NC3COC3)cc2)n1` [Example 3t, 1-[4-[4-(1-cyclopropylsulfonylcyclopropyl)-6-[(3S)-3-methylmorpholin-4-yl]pyrimidin-2-yl]phenyl]-3-(oxetan-3-yl)urea] as the compound, how does the IC50 read?
A: 4.79 nM

Q: `C[C@H]1COCCN1c1cc(C2(S(=O)(=O)C3CC3)CC2)nc(-c2ccc(NC(=O)Nc3ccn(C)n3)cc2)n1` [Example 3u, 1-[4-[4-(1-cyclopropylsulfonylcyclopropyl)-6-[(3S)-3-methylmorpholin-4-yl]pyrimidin-2-yl]phenyl]-3-(1-methylpyrazol-3-yl)urea] was tested. Which IC50 did it give?
A: 0.604 nM

Q: `C[C@H]1COCCN1c1cc(C2(S(=O)(=O)C3CC3)CC2)nc(-c2ccc(NC(=O)Nc3ncns3)cc2)n1` [Example 3w, 1-[4-[4-(1-cyclopropylsulfonylcyclopropyl)-6-[(3S)-3-methylmorpholin-4-yl]pyrimidin-2-yl]phenyl]-3-(1,2,4-thiadiazol-5-yl)urea] was tested. Which IC50 did it give?
A: 0.89 nM

Q: With `CNC(=O)Nc1ccc(-c2nc(N3CCOC[C@@H]3C)cc(C3(S(C)(=O)=O)CCCC3)n2)cc1` [Example 4, 3-Methyl-1-[4-[4-[(3S)-3-methylmorpholin-4-yl]-6-(1-methylsulfonylcyclopentyl)pyrimidin-2-yl]phenyl]urea] as the compound, how does the IC50 read?
A: 0.699 nM

Q: With `CCNC(=O)Nc1ccc(-c2nc(N3CCOC[C@@H]3C)cc(C3(S(C)(=O)=O)CCCC3)n2)cc1` [Example 4a, 3-ethyl-1-[4-[4-[(3S)-3-methylmorpholin-4-yl]-6-(1-methylsulfonylcyclopentyl)pyrimidin-2-yl]phenyl]urea] as the compound, how does the IC50 read?
A: 2.16 nM

Q: For `CC(C)NC(=O)Nc1ccc(-c2nc(N3CCOC[C@@H]3C)cc(C3(S(C)(=O)=O)CCCC3)n2)cc1` [Example 4c, 1-[4-[4-[(3S)-3-methylmorpholin-4-yl]-6-(1-methylsulfonylcyclopentyl)pyrimidin-2-yl]phenyl]-3-propan-2-yl-urea], which IC50 is on record?
A: 16.9 nM

Q: How did the IC50 turn out when `C[C@H]1COCCN1c1cc(C2(S(C)(=O)=O)CCCC2)nc(-c2ccc(NC(=O)NC3CCC3)cc2)n1` [Example 4d, 3-cyclobutyl-1-[4-[4-[(3S)-3-methylmorpholin-4-yl]-6-(1-methylsulfonylcyclopentyl)pyrimidin-2-yl]phenyl]urea] was run?
A: 10 nM

Q: Which IC50 does the source give for `C[C@H]1COCCN1c1cc(C2(S(C)(=O)=O)CCCC2)nc(-c2ccc(NC(=O)NCCO)cc2)n1` [Example 4e, 3-(2-hydroxyethyl)-1-[4-[4-[(3S)-3-methylmorpholin-4-yl]-6-(1-methylsulfonylcyclopentyl)pyrimidin-2-yl]phenyl]urea] here?
A: 1.19 nM

Same assay, conditions: table of enzyme assay Test (a)(ii); read-out: Test (a)(ii) IC50

Q: With `CCNC(=O)Nc1ccc(-c2nc(N3CCOC[C@@H]3C)cc(C3(S(C)(=O)=O)CCCC3)n2)cc1` [Example 4a, 3-ethyl-1-[4-[4-[(3S)-3-methylmorpholin-4-yl]-6-(1-methylsulfonylcyclopentyl)pyrimidin-2-yl]phenyl]urea] as the compound, how does the IC50 read?
A: 2.17 nM

Q: With `C[C@H]1COCCN1c1cc(C2(S(C)(=O)=O)CCCC2)nc(-c2ccc(NC(=O)NCCO)cc2)n1` [Example 4e, 3-(2-hydroxyethyl)-1-[4-[4-[(3S)-3-methylmorpholin-4-yl]-6-(1-methylsulfonylcyclopentyl)pyrimidin-2-yl]phenyl]urea] as the compound, how does the IC50 read?
A: 0.767 nM
